Measurements from patent US6512000B1, “Aminocarbonyl-substituted benzimidazoles having tryptase-inhibitory activity” (Boehringer Ingelheim Pharma KG, priority 1999, dated 2003).
Where a name gives a salt, the structure may show the parent alone.

target: T1, rh beta tryptase (Homo sapiens, UniProt P20231); test: Tryptase inhibition test (cleavage of N-p-tosyl-Gly-Pro-Lys-para-nitroaniline, p-nitroaniline measured at 405 nm); format: biochemical; details: concentration at which 50% of the tryptase enzyme activity is inhibited; substrate 0.6 mM, pH 7.4, 37° C.
T1 construct: purchased Promega
In short: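 Recombinant human beta tryptase (0.91 U/ml) in 100 mM Tris HCl pH 7.4 with 5 mM calcium and 100 mg/ml heparin; compounds pre-incubated 5 min, then 0.6 mM tosyl-Gly-Pro-Lys-pNA added, 5 min at 37 °C. p-Nitroaniline read at 405 nm; % inhibition at 10 μM, IC50 determined when inhibition exceeded 70%.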

T1 sequence (P20231 31-275): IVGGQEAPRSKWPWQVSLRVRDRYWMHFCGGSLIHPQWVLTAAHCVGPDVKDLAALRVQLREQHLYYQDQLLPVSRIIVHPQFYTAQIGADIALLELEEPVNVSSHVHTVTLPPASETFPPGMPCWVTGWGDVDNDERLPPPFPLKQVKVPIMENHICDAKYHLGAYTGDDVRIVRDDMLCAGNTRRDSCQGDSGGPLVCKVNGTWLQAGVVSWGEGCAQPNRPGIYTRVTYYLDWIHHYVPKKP

Compound	IC50
2-[2-(4-amidinophenyl)ethyl]-1-cyclopropylmethyl-benzimidazol-5-yl-carboxylic acid-N-(2-aminoethyl)-N-(3-pyridyl)-amide [Example 330]	503 nM
CCOCCCn1c(CCc2ccc(C(=N)N)cc2)nc2cc(C(=O)N(CCN)Cc3ccccc3F)ccc21 [Example 406, 2-[2-(4-amidinophenyl)ethyl]-1-(3-ethoxypropyl)-benzimidazol-5-yl-carboxylic acid-N-(2-aminoethyl)-N-(2-fluorobenzyl)-amide]	392 nM

Further lines, results first:

IC50	Compound
98 nM	Cc1ccccc1N1CCCN(C(=O)c2ccc3c(c2)nc(CCc2ccc(C(=N)N)cc2)n3C)CC1 [Example 15, 2-[2-(4-Amidinophenyl)-ethyl]-1-methyl-benzimidazol-5-yl-carboxylic Acid-[N′-(2-methyl-phenyl)-diazepide]-hydrochloride]
118 nM	Cc1cccc(N2CCN(C(=O)c3ccc4c(c3)nc(CCc3ccc(C(=N)N)cc3)n4C)CC2)c1 [Example 47, 2-[2-(4-Amidinophenyl)-ethyl]-1-methyl-benzimidazol-5-yl-carboxylic Acid-[N′-(3-methylphenyl)-piperazide]]
55 nM	Cn1c(CCc2ccc(C(=N)N)cc2)nc2cc(C(=O)N(CCC(=N)N)C3CCCCCCC3)ccc21 [Example 25, 2-[2-(4-Amidinophenyl)-ethyl]-1-methyl-benzimidazol-5-yl-carboxylic Acid-N-(2-amidinoethyl)-N-cyclooctyl-amide-dihydrochloride]
192 nM	Cn1c(CCc2ccc(CN)cc2)nc2cc(C(=O)NCCC(c3ccccc3)c3ccccc3)ccc21 [Example 40, 2-[2-(4-Aminomethyl-phenyl)-ethyl]-1-methyl-benzimidazol-5-yl-carboxylic Acid-N-(3,3-diphenylpropyl)-amide-dihydrochloride]
346 nM	Cn1c(CCc2ccc(C(=N)N)cc2)nc2cc(C(=O)N3CCN(Cc4ccccc4)CC3)ccc21 [Example 55, 2-[2-(4-Amidinophenyl)-ethyl]-1-methyl-benzimidazol-5-yl-carboxylic Acid-[N′-benzyl-piperazide]]
16 nM	Cn1c(CCc2ccc(C(=N)N)cc2)nc2cc(C(=O)N(CCC(=N)N)CCc3ccccc3)ccc21 [Example 24, 2-[2-(4-Amidinophenyl)-ethyl]-1-methyl-benzimidazol-5-yl-carboxylic Acid-N-(2-amidinoethyl)-N-(2-phenylethyl)-amide-dihydrochloride]
241 nM	COc1ccccc1N1CCN(C(=O)c2ccc3c(c2)nc(CCc2ccc(C(=N)N)cc2)n3C)CC1 [Example 53, 2-[2-(4-Amidinophenyl)-ethyl]-1-methyl-benzimidazol-5-yl-carboxylic Acid-[N′-(2-methoxyphenyl)-piperazide]]
253 nM	CCOCCCn1c(CCc2ccc(C(=N)N)cc2)nc2cc(C(=O)N(CCN)c3ccccn3)ccc21 [Example 310, 2-[2-(4-amidinophenyl)ethyl]-1-(3-ethoxypropyl)-benzimidazol-5-yl-carboxylic acid-N-(2-aminoethyl)-N (2-pyridyl)-amide]

same assay, conditions: inhibition of rh beta tryptase at 10 μM test substance; substrate N-p-tosyl-Gly-Pro-Lys-para-nitroaniline 0.6 mM, pH 7.4, 37° C., 5 minutes

Compound	inhibition at 10 µM	% Inhibition (10 μM)
N=C(N)c1ccc(CCc2nc3cc(C(=O)N(Cc4ccccc4)Cc4ccc(CN)cc4)ccc3n2CC2CC2)cc1 [Example 106, 2-[2-(4-amidinophenyl)ethyl]-1-cyclopropylmethyl-benzimidazol-5-yl-carboxylic acid-N-[4-(amino-methyl)-benzyl]-N-benzyl-amide]	58%	
2-[2-(4-amidinophenyl)ethyl]-1-(4-methylbenzyl)-benzimidazol-5-yl-carboxylic acid-N-[4-(amino-methyl)-benzyl]-N-(2-pyridyl)-amide [Example 125]		63%
CCCCN(Cc1ccc(CN)cc1)C(=O)c1ccc2c(c1)nc(CCc1ccc(C(=N)N)cc1)n2Cc1ccc(C)cc1 [Example 93, 2-[2-(4-amidinophenyl)ethyl]-1-(4-methylbenzyl)-benzimidazol-5-yl-carboxylic acid-N-[4-(amino-methyl)-benzyl]-N-n-butyl-amide]	56%	
2-[2-(4-amidinophenyl)ethyl]-1-[2-(4-chlorophenyl)ethyl]-benzimidazol-5-yl-carboxylic acid-N-[4-(amino-methyl)-benzyl]-N-(2-pyridyl)-amide [Example 124]		55%
N=C(N)c1ccc(CCc2nc3cc(C(=O)N(CCN)CC4CCCCC4)ccc3n2CC2CC2)cc1 [Example 346, 2-[2-(4-amidinophenyl)ethyl]-1-cyclopropylmethyl-benzimidazol-5-yl-carboxylic acid-N-(2-aminoethyl)-N-cyclohexylmethyl-amide]	51%	
N=C(N)c1ccc(CCc2nc3cc(C(=O)N(Cc4ccccc4)Cc4ccc(CN)cc4)ccc3n2CC2CCCO2)cc1 (centres unmarked) [Example 114, 2-[2-(4-amidinophenyl)ethyl]-1-(tetrahydrofuran-2-yl-methyl)-benzimidazol-5-yl-carboxylic acid-N-[4-(amino-methyl)-benzyl]-N-benzyl-amide]	58%	
COC(=O)c1ccc(CN(Cc2ccc(CN)cc2)C(=O)c2ccc3c(c2)nc(CCc2ccc(C(=N)N)cc2)n3CC2CC2)cc1 [Example 442, 2-[2-(4-amidinophenyl)ethyl]-1-cyclopropylmethyl-benzimidazol-5-yl-carboxylic acid-N-[4-(amino-methyl)-benzyl]-N-[4-(methoxycarbonyl)-benzyl]-amide]	59%	
2-[2-(4-amidinophenyl)ethyl]-1-cyclopropylmethyl-benzimidazol-5-yl-carboxylic acid-N-(2-aminoethyl)-N-(3-pyridyl)-amide [Example 330]		54%
CCCCN(Cc1ccc(CN)cc1)C(=O)c1ccc2c(c1)nc(CCc1ccc(C(=N)N)cc1)n2CC1CCCO1 (centres unmarked) [Example 98, 2-[2-(4-amidinophenyl)ethyl]-1-(tetrahydrofuran-2-yl-methyl)-benzimidazol-5-yl-carboxylic acid-N-[4-(amino-methyl)-benzyl]-N-n-butyl-amide]	67%	
CCCCN(CCN)C(=O)c1ccc2c(c1)nc(CCc1ccc(C(=N)N)cc1)n2CCCNC(=O)Cc1ccccc1 [Example 280, 2-[2-(4-amidinophenyl)ethyl]-1-[3-(benzylcarbonylamino)-propyl]-benzimidazol-5-yl-carboxylic acid-N-(2-aminoethyl)-N-n-butyl-amide]	59%	
N=C(N)c1ccc(CCc2nc3cc(C(=O)N(CCN)CCCc4ccccc4)ccc3n2CC2CCCO2)cc1 (centres unmarked) [Example 370, 2-[2-(4-amidinophenyl)ethyl]-1-(tetrahydrofuran-2-yl-methyl)-benzimidazol-5-yl-carboxylic acid-N-(2-aminoethyl)-N-(3-phenylpropyl)-amide]	53%	
COc1cccc(CN(CCN)C(=O)c2ccc3c(c2)nc(CCc2ccc(C(=N)N)cc2)n3CC2CCCO2)c1 (centres unmarked) [Example 274, 2-[2-(4-amidinophenyl)ethyl]-1-(tetrahydrofuran-2-yl-methyl)-benzimidazol-5-yl-carboxylic acid-N-(2-aminoethyl)-N-(3-methoxybenzyl)-amide]	57%	
N=C(N)c1ccc(CCc2nc3cc(C(=O)N(Cc4ccc(CN)cc4)Cc4cccc(C(F)(F)F)c4)ccc3n2CCCN2CCOCC2)cc1 [Example 209, 2-[2-(4-amidinophenyl)ethyl]-1-[3-(morpholin-4-yl)-propyl]-benzimidazol-5-yl-carboxylic acid-N-[4-(amino-methyl)-benzyl]-N-(3-trifluoromethylbenzyl)-amide]	61%	
CCOCCCn1c(CCc2ccc(C(=N)N)cc2)nc2cc(C(=O)N(CCN)Cc3ccccc3F)ccc21 [Example 406, 2-[2-(4-amidinophenyl)ethyl]-1-(3-ethoxypropyl)-benzimidazol-5-yl-carboxylic acid-N-(2-aminoethyl)-N-(2-fluorobenzyl)-amide]	54%	

The remaining lines, values ahead:

inhibition at 10 µM	% Inhibition (10 μM)	Compound
	76%	2-[2-(4-amidinophenyl)ethyl]-1-(2-phenylethyl)-benzimidazol-5-yl-carboxylic acid-N-[4-(amino-methyl)-benzyl]-N-(3-pyridyl)-amide [Example 139]
59%		N=C(N)c1ccc(CCc2nc3cc(C(=O)N(Cc4ccc(CN)cc4)Cc4cccc(C(F)(F)F)c4)ccc3n2CC2CCCO2)cc1 (centres unmarked) [Example 210, 2-[2-(4-amidinophenyl)ethyl]-1 (tetrahydrofuran-2-yl-methyl)-benzimidazol-5-yl-carboxylic acid-N-[4-(amino-methyl)-benzyl]-N-(3-trifluoromethylbenzyl)-amide]
	57%	2-[2-(4-amidinophenyl)ethyl]-1-(3-di-n-butylaminopropyl)-benzimidazol-5-yl-carboxylic acid-N-[4-(amino-methyl)-benzyl]-N-(2-pyridyl)-amide [Example 119]
51%		N=C(N)c1ccc(CCc2nc3cc(C(=O)N(CCN)Cc4cccc(C(F)(F)F)c4)ccc3n2CC2CCCO2)cc1 (centres unmarked) [Example 402, 2-[2-(4-amidinophenyl)ethyl]-1-(tetrahydrofuran-2-yl-methyl)-benzimidazol-5-yl-carboxylic acid-N-(2-aminoethyl)-N-(3-trifluoromethylbenzyl)-amide]
60%		N=C(N)c1ccc(CCc2nc3cc(C(=O)N(Cc4ccc(CN)cc4)CC4CCCCC4)ccc3n2CC2CCCO2)cc1 (centres unmarked) [Example 162, 2-[2-(4-amidinophenyl)ethyl]-1-(tetrahydrofuran-2-yl-methyl)-benzimidazol-5-yl-carboxylic acid-N-[4-(amino-methyl)-benzyl]-N-cyclohexylmethyl-amide]
67%		CCCCN(Cc1ccc(CN)cc1)C(=O)c1ccc2c(c1)nc(CCc1ccc(C(=N)N)cc1)n2CC1CC1 [Example 90, 2-[2-(4-amidinophenyl)ethyl]-1-cyclopropylmethyl-benzimidazol-5-yl-carboxylic acid-N-[4-(amino-methyl)-benzyl]-N-n-butyl-amide]
	59%	N=C(N)c1ccc(CCc2nc3cc(C(=O)N(Cc4ccc(Cl)cc4)Cc4ccc(CN)cc4)ccc3n2CCCN2CCOCC2)cc1 [Example 193, 2-[2-(4-amidinophenyl)ethyl]-1-[3-(morpholin-4-yl)-propyl]-benzimidazol-5-yl-carboxylic acid-N-[4-(amino-methyl)-benzyl]-N-(4-chlorbenzyl)-amide]
	70%	CCOCCCn1c(CCc2ccc(C(=N)N)cc2)nc2cc(C(=O)N(CCN)c3ccccn3)ccc21 [Example 310, 2-[2-(4-amidinophenyl)ethyl]-1-(3-ethoxypropyl)-benzimidazol-5-yl-carboxylic acid-N-(2-aminoethyl)-N (2-pyridyl)-amide]
